This series relates to 5-week-old ICR male mouse. The series can be described thus: Acute toxicity No. 1: lethal toxicity test of the compounds, intraperitoneal. Type of series: in vivo. Particulars: for general condition after the administration / weight / dead individuals during the observation period: i.p., mice. An excerpt:
Novel glucosamine derivative [I] according to the present invention was used to perform a lethal toxicity test with respect to mice. The following compounds were used as to-be-tested substances. • ① 6-O-palmitoyl-D-glucosamine methylglycoside • ② 6,6'-di-O-palmitoyl-D-glucosamino-(l→4)-β-D-glucosamine methylglycoside • ③ Stearylamine (Comparative Example)
Each of the above compounds was suspended in a 0.5%-CMC·Na solution to prepare a to-be-tested solution. 1.0 mℓ of each to-be-tested solution was administered intraperitoneally to a 5-week-old ICR male mouse, and a mouse mortality state was observed. Note that 1.0 mℓ of a 0.5%-CMC·Na solution was similarly administered to a solvent control group.

Molecules are shown by their SMILES.

As to `CCCCCCCCCCCCCCCCCCN` [compound ③, Stearylamine, reference compound], the “general condition after the administration” value (“general condition” for short) is recorded as “a decrease in spontaneous motion was found immediately after the administration” and the weight result was “the weight was gradually decreased to result in death”. The “Total Number of dead individuals” value (250 ng/kg i.p.) is 1/5. Also, where the note is “250 ng/kg i.p., 1st day”, the “Number of dead individuals” value was 0/5. Also, the “Number of dead individuals” value (250 ng/kg i.p., 2nd day) is reported as 0/5. Also, the “Number of dead individuals” value (250 ng/kg i.p., 3rd day) is on record as 1/5. Also, for the setting “250 ng/kg i.p., Day of test”, the “Number of dead individuals” value is on record as 0/5. Further, the “Total Number of dead individuals” value (500 ng/kg i.p.) is 3/5. The “Number of dead individuals” value (500 ng/kg i.p., 1st day) is listed as 0/5. For the same molecule, the “Number of dead individuals” value (500 ng/kg i.p., 2nd day) is 3/5. Also, the “Number of dead individuals” value (500 ng/kg i.p., 3rd day) was 0/2. In addition, the “Number of dead individuals” value (500 ng/kg i.p., Day of test) is on record as 0/5. The “Total Number of dead individuals” value (1,500 ng/kg i.p.) is 4/4. For the setting “1,500 ng/kg i.p., 1st day”, the “Number of dead individuals” value is on record as 0/4. The “Number of dead individuals” value (1,500 ng/kg i.p., 2nd day) is recorded as 1/4. Besides, for the setting “1,500 ng/kg i.p., 3rd day”, the “Number of dead individuals” value is reported as 3/3. Moreover, the “Number of dead individuals” value (1,500 ng/kg i.p., Day of test) is given as 0/4.

For `CCCCCCCCCCCCCCCC(=O)OC[C@H]1O[C@@H](O[C@H]2[C@H](O)[C@@H](N)C(OC)O[C@@H]2COC(=O)CCCCCCCCCCCCCCC)[C@H](N)[C@@H](O)[C@@H]1O` (stereo partly drawn) [compound ②, 6,6'-di-O-palmitoyl-D-glucosamino-(1→4)-β-D-glucosamine methylglycoside], the “dead individuals during the observation period” value is “no dead individual was found”, the “general condition” value is given as “no significant change was found” and the weight entry is “an increase in weight was found as in the control”. Further, the “Total Number of dead individuals” value (450 ng/kg i.p.) is 0/1. For the same molecule, for the setting “450 ng/kg i.p., 1st day”, the “Number of dead individuals” value is recorded as 0/1. Besides, the “Number of dead individuals” value (450 ng/kg i.p., 2nd day) is 0/1. Where the note is “450 ng/kg i.p., 3rd day”, the “Number of dead individuals” value is given as 0/1. Moreover, the “Number of dead individuals” value (450 ng/kg i.p., Day of test) is 0/1. Also, the “Total Number of dead individuals” value (900 ng/kg i.p.) is reported as 0/1. Besides, under “900 ng/kg i.p., 1st day”, the “Number of dead individuals” value is listed as 0/1. The “Number of dead individuals” value (900 ng/kg i.p., 2nd day) is 0/1. For the same molecule, the “Number of dead individuals” value (900 ng/kg i.p., 3rd day) is 0/1. The “Number of dead individuals” value (900 ng/kg i.p., Day of test) is reported as 0/1.

Consider `CCCCCCCCCCCCCCCC(=O)OC[C@H]1OC(OC)[C@H](N)[C@@H](O)[C@@H]1O` (stereo partly drawn) [compound ①, 6-O-palmitoyl-D-glucosamine methylglycoside], for which the “dead individuals during the observation period” value is reported as “no dead individual was found”, the “general condition” value is “no significant change was found” and the weight result is on record as “an increase in weight was found as in the control”. Besides, the “Total Number of dead individuals” value (450 ng/kg i.p.) is listed as 0/2. Further, the “Number of dead individuals” value (450 ng/kg i.p., 1st day) is listed as 0/2. Besides, the “Number of dead individuals” value (450 ng/kg i.p., 2nd day) is reported as 0/2. Also, the “Number of dead individuals” value (450 ng/kg i.p., 3rd day) is 0/2. In addition, for the setting “450 ng/kg i.p., Day of test”, the “Number of dead individuals” value was 0/2. The “Total Number of dead individuals” value (900 ng/kg i.p.) is on record as 0/2. The “Number of dead individuals” value (900 ng/kg i.p., 1st day) is given as 0/2. Where the note is “900 ng/kg i.p., 2nd day”, the “Number of dead individuals” value is 0/2. Besides, the “Number of dead individuals” value (900 ng/kg i.p., 3rd day) is 0/2. The “Number of dead individuals” value (900 ng/kg i.p., Day of test) is 0/2.

Source of the values: patent EP0457910A1, “NOVEL GLUCOSAMINE DERIVATIVE AND LIPOSOME CONTAINING THE SAME AS MEMBRANE COMPONENT” (Japan Tobacco Inc., priority 1989, dated 1991).
